According to patent US6479435B1, “Diaryl ethers and processes for their preparation and herbicidal and desiccant compositions containing them” (ISK Americas Incorporated, priority 1997, dated 2002):

Columns and labels:
Assay type in all cases: in vivo
[1] = system: redroot pigweed (Amaranthus retroflexus, AMARE); assay: Pre-emerge greenhouse herbicide test, phytotoxicity rating; conditions: 14 days after application, rating scale 0-100
Method in brief: (§1)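 Seeds sown in sandy loam mix one day before track-sprayer application of compounds in acetone at 125–1000 g ai/ha (187 l/ha), then surface-watered to incorporate and bottom-watered. Visual rating 14 days after application on a 0–100 scale (0 = no damage, 100 = all plants dead).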

[2] = system: lambsquarters (Chenopodium album, CHEAL); assay: as above; conditions: 14 days after application, rating scale 0-100
Method in brief: as §1

[3] = system: sicklepod (Cassia obtusifolia, CASOB); assay: as above; conditions: 14 days after application, rating scale 0-100
Method in brief: as §1

[4] = system: ivyleaf morningglory (Ipomoea hederacea, IPOHE); assay: as above; conditions: 14 days after application, rating scale 0-100
Method in brief: as §1

[5] = system: barnyardgrass (Echinochloa crusgalli, ECHCG); assay: as above; conditions: 14 days after application, rating scale 0-100
Method in brief: as §1

[6] = system: common ragweed (Ambrosia artemisiifolia L., AMBEL); assay: as above; conditions: 14 days after application, rating scale 0-100
Method in brief: as §1

[7] = system: Johnsongrass (Sorghum halepense, SORHA); assay: as above; conditions: 14 days after application, rating scale 0-100
Method in brief: as §1

[8] = system: large crabgrass (Digitaria sanguinalis, DIGSA); assay: as above; conditions: 14 days after application, rating scale 0-100
Method in brief: as §1

[9] = system: green foxtail (Setaria viridis, SETVI); assay: as above; conditions: 14 days after application, rating scale 0-100
Method in brief: as §1

[10] = system: velvetleaf (Abutilon theophrasti, ABUTH); assay: as above; conditions: 14 days after application, rating scale 0-100
Method in brief: as §1

[11] = system: redroot pigweed (Amaranthus retroflexus, AMARE); assay: Post-emerge greenhouse herbicide test, phytotoxicity rating; conditions: 14 days after application
Method in brief: (§2)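 Compounds in acetone with 0.25% v/v non-ionic surfactant were track-sprayed at 187 l/ha over plants at the 2-3 leaf stage, at 63 to 1000 g ai/ha. Pots were bottom-watered. Injury was scored visually 14 days later on a 0-100 scale, where 0 is no damage and 100 is complete plant death.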

[12] = system: lambsquarters (Chenopodium album, CHEAL); assay: as above; conditions: 14 days after application
Method in brief: as §2

[13] = system: sicklepod (Cassia obtusifolia, CASOB); assay: as above; conditions: 14 days after application
Method in brief: as §2

[14] = system: ivyleaf morningglory (Ipomoea hederacea, IPOHE); assay: as above; conditions: 14 days after application
Method in brief: as §2

[15] = system: barnyardgrass (Echinochloa crusgalli, ECHCG); assay: as above; conditions: 14 days after application
Method in brief: as §2

[16] = system: Johnsongrass (Sorghum halepense, SORHA); assay: as above; conditions: 14 days after application
Method in brief: as §2

[17] = system: large crabgrass (Digitaria sanguinalis, DIGSA); assay: as above; conditions: 14 days after application
Method in brief: as §2

[18] = system: green foxtail (Setaria viridis, SETVI); assay: as above; conditions: 14 days after application
Method in brief: as §2

[19] = system: velvetleaf (Abutilon theophrasti, ABUTH); assay: as above; conditions: 14 days after application
Method in brief: as §2

[20] = system: soybean (Glycine max L., var. Pella 86, SOY); assay: Post-emerge greenhouse test, crop damage rating; conditions: 14 days after application
Method in brief: as §2

[21] = system: soybean (Glycine max L., var. Pella 86, SOY); assay: Pre-emerge greenhouse test, crop damage rating; conditions: 14 days after application, rating scale 0-100
Method in brief: as §1

[22] = system: field corn (Zea mays L., var. Dekalb 535, CORN); assay: Pre-emerge greenhouse test, crop damage rating; conditions: 14 days after application, rating scale 0-100
Method in brief: as §1

[23] = system: upland rice (Oryza sp., var.Tebonnet, RICE); assay: Pre-emerge greenhouse test, crop damage rating; conditions: 14 days after application, rating scale 0-100
Method in brief: as §1

[24] = system: common ragweed (Ambrosia artemisiifolia L., AMBEL); assay: Post-emerge greenhouse herbicide test, phytotoxicity rating; conditions: 14 days after application
Method in brief: as §2

[25] = system: field corn (Zea mays L., var. Dekalb 535, CORN); assay: Post-emerge greenhouse test, crop damage rating; conditions: 14 days after application
Method in brief: as §2

[26] = system: upland rice (Oryza sp., var.Tebonnet, RICE); assay: Post-emerge greenhouse test, crop damage rating; conditions: 14 days after application
Method in brief: as §2

O=c1n(-c2cc(Oc3ccc([N+](=O)[O-])cc3C(F)(F)F)c(Cl)cc2F)c(=S)n2n1CCCC2 [Compound 8-14]
phytotoxicity rating AMARE ([1]; 125 g ai/ha): 70 | phytotoxicity rating AMARE ([1]; 500 g ai/ha): 95 | phytotoxicity rating CHEAL ([2]; 125 g ai/ha): 80 | phytotoxicity rating CHEAL ([2]; 500 g ai/ha): 100 | phytotoxicity rating CASOB ([3]; 125 g ai/ha): 0 | phytotoxicity rating CASOB ([3]; 500 g ai/ha): 0 | phytotoxicity rating IPOHE ([4]; 125 g ai/ha): 0 | phytotoxicity rating IPOHE ([4]; 500 g ai/ha): 0 | phytotoxicity rating ECHCG ([5]; 125 g ai/ha): 0 | phytotoxicity rating ECHCG ([5]; 500 g ai/ha): 0 | phytotoxicity rating AMBEL ([6]; 125 g ai/ha): 0 | phytotoxicity rating AMBEL ([6]; 500 g ai/ha): 30 | phytotoxicity rating SORHA ([7]; 125 g ai/ha): 0 | phytotoxicity rating SORHA ([7]; 500 g ai/ha): 0 | phytotoxicity rating DIGSA ([8]; 125 g ai/ha): 0 | phytotoxicity rating DIGSA ([8]; 500 g ai/ha): 20 | phytotoxicity rating SETVI ([9]; 125 g ai/ha): 0 | phytotoxicity rating SETVI ([9]; 500 g ai/ha): 50 | phytotoxicity rating ABUTH ([10]; 125 g ai/ha): 30 | phytotoxicity rating ABUTH ([10]; 500 g ai/ha): 60 | AMARE phytotoxicity rating (0-100) ([11]; 63 g al/ha): 70 | AMARE phytotoxicity rating (0-100) ([11]; 500 g al/ha): 90 | CHEAL phytotoxicity rating (0-100) ([12]; 63 g al/ha): 80 | CHEAL phytotoxicity rating (0-100) ([12]; 500 g al/ha): 90 | CASOB phytotoxicity rating (0-100) ([13]; 63 g al/ha): 40 | CASOB phytotoxicity rating (0-100) ([13]; 500 g al/ha): 30 | IPOHE phytotoxicity rating (0-100) ([14]; 63 g al/ha): 80 | IPOHE phytotoxicity rating (0-100) ([14]; 500 g al/ha): 85 | ECHCG phytotoxicity rating (0-100) ([15]; 63 g al/ha): 0 | ECHCG phytotoxicity rating (0-100) ([15]; 500 g al/ha): 0 | SORHA phytotoxicity rating (0-100) ([16]; 63 g al/ha): 0 | SORHA phytotoxicity rating (0-100) ([16]; 500 g al/ha): 0 | DIGSA phytotoxicity rating (0-100) ([17]; 63 g al/ha): 0 | DIGSA phytotoxicity rating (0-100) ([17]; 500 g al/ha): 0 | SETVI phytotoxicity rating (0-100) ([18]; 63 g al/ha): 30 | SETVI phytotoxicity rating (0-100) ([18]; 500 g al/ha): 20 | ABUTH phytotoxicity rating (0-100) ([19]; 63 g al/ha): 95 | ABUTH phytotoxicity rating (0-100) ([19]; 500 g al/ha): 95 | SOY crop damage rating (0-100) ([20]; 63 g al/ha): 30 | SOY crop damage rating (0-100) ([20]; 500 g al/ha): 30 | crop damage rating SOY ([21]; 125 g ai/ha): 0 | crop damage rating SOY ([21]; 500 g ai/ha): 0 | crop damage rating CORN ([22]; 125 g ai/ha): 0 | crop damage rating CORN ([22]; 500 g ai/ha): 0 | crop damage rating RICE ([23]; 125 g ai/ha): 0 | crop damage rating RICE ([23]; 500 g ai/ha): 0 | AMBEL phytotoxicity rating (0-100) ([24]; 63 g al/ha): 40 | AMBEL phytotoxicity rating (0-100) ([24]; 500 g al/ha): 60 | CORN crop damage rating (0-100) ([25]; 63 g al/ha): 5 | CORN crop damage rating (0-100) ([25]; 500 g al/ha): 5 | RICE crop damage rating (0-100) ([26]; 63 g al/ha): 0 | RICE crop damage rating (0-100) ([26]; 500 g al/ha): 0

O=c1n(CCCF)nnn1-c1cc(Oc2ncc(Br)cn2)c(Cl)cc1F [Compound 6-16]
phytotoxicity rating AMARE ([1]; 125 g ai/ha): 100 | phytotoxicity rating AMARE ([1]; 500 g ai/ha): 100 | phytotoxicity rating CHEAL ([2]; 125 g ai/ha): 100 | phytotoxicity rating CHEAL ([2]; 500 g ai/ha): 100 | phytotoxicity rating CASOB ([3]; 125 g ai/ha): 50 | phytotoxicity rating CASOB ([3]; 500 g ai/ha): 30 | phytotoxicity rating IPOHE ([4]; 125 g ai/ha): 50 | phytotoxicity rating IPOHE ([4]; 500 g ai/ha): 30 | phytotoxicity rating ECHCG ([5]; 125 g ai/ha): 0 | phytotoxicity rating ECHCG ([5]; 500 g ai/ha): 90 | phytotoxicity rating AMBEL ([6]; 125 g ai/ha): 0 | phytotoxicity rating AMBEL ([6]; 500 g ai/ha): 70 | phytotoxicity rating SORHA ([7]; 125 g ai/ha): 40 | phytotoxicity rating SORHA ([7]; 500 g ai/ha): 80 | phytotoxicity rating DIGSA ([8]; 125 g ai/ha): 80 | phytotoxicity rating DIGSA ([8]; 500 g ai/ha): 100 | phytotoxicity rating SETVI ([9]; 125 g ai/ha): 80 | phytotoxicity rating SETVI ([9]; 500 g ai/ha): 100 | phytotoxicity rating ABUTH ([10]; 125 g ai/ha): 100 | phytotoxicity rating ABUTH ([10]; 500 g ai/ha): 100 | AMARE phytotoxicity rating (0-100) ([11]; 63 g al/ha): 70 | AMARE phytotoxicity rating (0-100) ([11]; 500 g al/ha): 100 | CHEAL phytotoxicity rating (0-100) ([12]; 63 g al/ha): 80 | CHEAL phytotoxicity rating (0-100) ([12]; 500 g al/ha): 100 | CASOB phytotoxicity rating (0-100) ([13]; 63 g al/ha): 0 | CASOB phytotoxicity rating (0-100) ([13]; 500 g al/ha): 30 | IPOHE phytotoxicity rating (0-100) ([14]; 63 g al/ha): 95 | IPOHE phytotoxicity rating (0-100) ([14]; 500 g al/ha): 95 | ECHCG phytotoxicity rating (0-100) ([15]; 63 g al/ha): 0 | ECHCG phytotoxicity rating (0-100) ([15]; 500 g al/ha): 30 | SORHA phytotoxicity rating (0-100) ([16]; 63 g al/ha): 0 | SORHA phytotoxicity rating (0-100) ([16]; 500 g al/ha): 20 | DIGSA phytotoxicity rating (0-100) ([17]; 63 g al/ha): 0 | DIGSA phytotoxicity rating (0-100) ([17]; 500 g al/ha): 0 | SETVI phytotoxicity rating (0-100) ([18]; 63 g al/ha): 20 | SETVI phytotoxicity rating (0-100) ([18]; 500 g al/ha): 50 | ABUTH phytotoxicity rating (0-100) ([19]; 63 g al/ha): 100 | ABUTH phytotoxicity rating (0-100) ([19]; 500 g al/ha): 100 | SOY crop damage rating (0-100) ([20]; 63 g al/ha): 40 | SOY crop damage rating (0-100) ([20]; 500 g al/ha): 60 | crop damage rating SOY ([21]; 125 g ai/ha): 0 | crop damage rating SOY ([21]; 500 g ai/ha): 10 | crop damage rating CORN ([22]; 125 g ai/ha): 0 | crop damage rating CORN ([22]; 500 g ai/ha): 15 | crop damage rating RICE ([23]; 125 g ai/ha): 0 | crop damage rating RICE ([23]; 500 g ai/ha): 50 | AMBEL phytotoxicity rating (0-100) ([24]; 63 g al/ha): 15 | AMBEL phytotoxicity rating (0-100) ([24]; 500 g al/ha): 20 | CORN crop damage rating (0-100) ([25]; 63 g al/ha): 10 | CORN crop damage rating (0-100) ([25]; 500 g al/ha): 20 | RICE crop damage rating (0-100) ([26]; 63 g al/ha): 30 | RICE crop damage rating (0-100) ([26]; 500 g al/ha): 40
